Measurements: patent US20240391903A1, “AUTOTAXIN-INHIBITORS” (UNIVERSITAET MUENSTER, priority 2021, published 2024)
Entries after “also recorded” stand apart in the source; their conditions may differ.

Assays:
[1] = Pharmacokinetic evaluation in mouse plasma after oral gavage; format: in vivo; conditions: 30 mg/kg oral, based on mean concentrations
Description: MJK2134025 and GLPG 1690 were each administered as wet milled aqueous micro-suspensions at a concentration of 3 mg/g in 1% carboxymethyl cellulose and 0.5% Tween 80. Dosing of the formulations was performed at 10.0 g/kg body weight, corresponding to 30 mg/kg body weight. The food intake was measured (FIG. 19).
Prior blood collection, minicollect K3 EDTA vials were opened at room temperature to dry the EDTA in order to avoid blood dilution by the fluid content. Following oral gavage of the test formulations tail vein blood samples were taken at 15 min, 30 min, 1 h, 2 h, 4 h and 8 h. Samples were collected in dried minicollect K3 EDTA plasma vials. The blood samples (20-25 μl) were mixed and immediately cooled to 4° C. Subsequently, the samples were centrifuged at 3000 g for 5-10 min. Supernatants were collected in Eppendorf tubes and frozen and stored at −80° C. until further processing.
MJK2134025 and GLPG1690 were quantified in mouse plasma samples by LC-MS. Frozen mouse plasma samples were thawed on ice. Samples were then precipitated at a ratio of 1:10 (v:v) with 5 ng mL^−1 17:0 LPA in methanol (as an internal standard) in a 1.5 mL Eppendorf tube with microinsert (clear glass, flat bottom, 0.2 mL, 31×6 mm, LABSOLUTE, Germany). The Eppendorf tubes were mixed for 2 minutes at 4° C. and 1600 rpm in a Thermomixer C (Eppendorf, Germany). The Eppendorf tubes were centrifuged at 4° C. and 16.1 rcf for 2 minutes. The supernatant was transferred to HPLC vials for UHPLC-HRMS measurements as described in the following section. Calibration standards of MJK2134025 and GLPG1690 were prepared by adding the reference substances of MJK2134025 and GLPG1690 to blank samples (mouse plasma without substance). The calibration curve was generated at 7 concentrations and with a weighting of 1/×. The following concentrations were used for the stock solutions: 0.1, 0.5, 1, 2.5, 10, 50 and 200 μg·mL^−1 in methanol. To prepare the 200 μg·mL^−1 stock solution, 0.04 mL of 1 mg·mL^−1 MJK2134025 and 0.04 mL of 1 mg·mL^−1 GLPG1690 were mixed with 0.12 mL methanol. These stock solutions (5 μL each) were added to the blank plasma (45 μL). The sample was then mixed for 2 minutes at 4° C. and 1600 rpm in Thermomixer C (Eppendorf, Germany). Subsequent sample processing was the same as for the samples quantified. All quantifications should be considered as preliminary estimates as stable isotope-labeled reference substances were not available and individual matrix effects cannot be excluded.
All processed plasma samples were analyzed with a Vanquish Horizon UHPLC system (Thermo Fisher Scientific, Bremen, Germany) coupled to a Thermo Scientific QExactive HF-X Orbitrap mass spectrometer (Thermo Fisher Scientific, Bremen, Germany) using a UHPLC column (Luna R Omega 1.6 μm C18 100 Å, 100*2.1 mm). A solution of 5 mM ammonium formate in water containing 0.1% formic acid (eluent A) and a 5 mM solution of ammonium formate in acetonitrile: H2O (95:5, % v:v) containing 0.1% formic acid (eluent B) were used as the mobile phase. A flow rate of 0.3 mL/min was used under the following gradient conditions: 30% eluent B for 1 minute, then linear increase to 98% in 14 minutes, holding 98% of eluent B for 5 minutes, and then decreasing to 30% in 0.5 minutes, followed by isocratic holding for 3.5 minutes. The column temperature was maintained at 25° C. Samples were kept at 4° C., and 8 μL was injected into the UHPLC-MS. The QExactive HF-X Orbitrap was acquired at a resolution of 60000 at full half-width and in both positive and negative modes. The following HESI source parameters were used: capillary voltage of 3.8 kV (negative mode) and 3.5 kV (positive mode), capillary temperature of 320° C., funnel RF level 40, sheath gas pressure 49 (N2>95%), auxiliary gas 10 (N2>95%), auxiliary gas heater temperature 300° C. The automatic gain control (AGC) was set to 10E+6. A scan range of m/z 400 to 600 was selected, and the injection time was set to 200 ms. […]

[2] = mouse model of stroke; cited from earlier work
[3] = Microsomal stability assay; format: in vitro ADME; conditions: human liver microsomes
Description: A microsomal stability assay was performed according to an internal standard procedure. Positive control compound diclofenac and three test items were freshly prepared as sub-dilutions in phosphate buffer (100 mM, pH 7.4) at concentrations of 200 μM and 20 μM, respectively. All incubations were conducted in triplicate in glass screw neck vials (1.5 mL, flat bottom, Macherey-Nagel, Düren, Germany) on a Thermomixer C (Eppendorf, Germany) at 37° C. and 1500 rpm. The incubation mixtures contained 270 μL human liver microsomes (HLM, 1.1 mg·mL^−1, UltraPool HLM 150, Corning B.V. Life Science, Amsterdam, the Netherlands), 270 μL NADP regeneration mix (1 mM NADP, 5 mM glucose-6-phosphate, 5 units·mL^−1 glucose-6-phosphate dehydrogenase and 5 mM MgCl2) and 30 μL phosphate buffer to reach a total volume of 570 μL. Negative controls were performed with heat inactivated (80° C., 30 min) HLM solution. Reactions were initiated by addition of diclofenac or the test item solution (30 μL). Aliquots of 100 μL were taken at 1, 15, 30, 60, and 90 minutes and immediately processed with 100 μL acetonitrile at 4° C. to terminate the reactions, and shaken for 2 minutes at 4° C. with 1600 rpm. The mixed samples were further transferred to 15 mm glass inserts (0.2 mL/6×31 mm, Macherey-Nagel, Düren, Germany) fitted in glass screw neck vials, and centrifuged for 15 min at 4° C. with 4000 rpm. The supernatants were withdrawn and subjected to high resolution mass spectrometry analysis without further treatment.
Samples were analyzed using a Vanquish Horizon UHPLC system (Thermo Fisher Scientific, Bremen, Germany) coupled to a Thermo Scientific QExactive HF-X Orbitrap mass spectrometer (Thermo Fisher Scientific, Bremen, Germany) using a UPLC column (ACQUITY HSS T3, Waters, 1.8 μm particle size, 2.1×50 mm dimensions). The column temperature was maintained at 25° C., and the samples were kept at 4° C. […]
Microsomal stability was determined in analogy to the method as described above, but as single determinations (FIG. 18).

ATX = target: T1, ATX (Homo sapiens, UniProt Q13822); experiment: ATX activity assay (Autotaxin inhibitor test kit, fluorescent ATX substrate); format: biochemical; conditions: for IC50: read-out: IC50 (nM) ATX inhibition
T1 construct: purchased
Description: (§1) A solution of 10 mM of the inhibitor to test in DMSO was received. Adding 40.5 μL of this solution to 959.5 μL DMSO gave a concentration of 405 μM. […] For a threefold dilution series 800 μL of 18% DMSO in water were dispensed in twelve 1.5 mL test tubes. 400 μL of the 75.9 μM inhibitor solution were added to the first vial and the solution was vortexed. For every dilution step 400 μL of the corresponding previous dilution step were transferred and mixed by vortexing. The obtained concentrations were 7594 nM, 2531 nM, 844 nM, 281 nM, 94 nM, 31 nM, 10 nM, 3.47 nM, 1.16 nM, 0.39 nM, 0.13 nM, 0.043 nM, 0.014 nM. The eight concentration steps from 31 nM to 0.014 nM were used in the assay.
The assay was performed according to the attached manual of the assay kit. In brief 80 μL reaction buffer containing ATX, 10 μL of the dilution series from the inhibitor and 10 μL fluorescent ATX substrate solution were mixed in a well of a 96 well plate. Cleavage of the substrate by ATX causes increase in fluorescence (excitation 485 nm, emission 528 nm), which is measured by a plate reader in 1 min intervals. The increase of fluorescence between 5 min and 15 min was used to calculate the reaction rate.
The autotaxin reaction was performed in four parallel replicates for the target inhibitor and two replicates for the positive control BrP-LPA. The slope of the increase in fluorescence was calculated by Excel using the “slope” function. The IC50 was calculated by GraphPad Prism using the nolinear regression (curve fit): “log (inhibitor) vs. response with variable slope (four parameters)”.
The autotaxin reaction was performed in three parallel replicates for the target inhibitors MJK2234001 and MJK2234002 and two replicates for MJK2134025 and two replicates for the positive control BrP-LPA. All ATX-tests were performed using the protocol as described above with minor modifications. Those modifications refer to the dilution principle:
as §1, with “The obtained concentrations were 7594 nM, 2531 nM, 844 nM, 281 nM, 94 nM, 31 nM, 10 nM, 3.47 nM, 1.16 nM, 0.39 nM, 0.13 nM, 0.043 nM, 0.014 nM.” left out, “300” for “31”, “0.14” for “0.014”, “assay. During the assay, the final concentration of the inhibitor during the reaction was 1/10th of the added inhibitor solution.” for “assay.”

[4] = Cytotoxicity testing in HeLa cells (methylene blue); format: cell-based; conditions: human, HeLa cells (DSM ACC 57), 72 hours incubation
Description: Hela cells (DSM ACC 57) were grown in RPMI 1640 medium supplemented with 10 mL·L^−1 ultraglutamine 1 (CAMBREX 17-605E/U1), 550 μL·L^−1 gentamicin sulfate (50 mg·mL^−1, CAMBREX 17-518Z) and 10% heat inactivated fetal bovine serum (GIBCO Life Technologies 10270-106) at 37° C. in a 5% CO2 atmosphere in high density polyethylene flasks (NUNC 156340). Cells were pre-incubated for 48 hours in the absence of test substances. Subsequently, Hela cells were incubated with serial dilutions of the test substances in 96 well microplates for 72 hours at 37° C. in a humidified atmosphere and 5% CO2. After incubation, the cytolytic effect of compounds was analyzed relative to the negative control (DMSO) using a colorimetric assay (methylene blue). The adherent Hela cells were fixed by glutaraldehyde (MERCK 1.04239.0250) and stained with a 0.05% solution of methylene blue (SERVA 29198) for 15 min. After gentle rinsing, the stain was eluted through addition of 0.2 mL hydrochloric acid (0.33 M) to each well. The absorptions were measured at 660 nm in a SUNRISE microplate reader (TECAN). Four replicates were assayed for each substance. […] All calculations of CC50 values were performed with the software Magellan (TECAN).

Structure (SMILES) | AUC [1] | Cmax [1] | Tmax [1] | IC50 (ATX) | infarct size and stroke-related motor deficits [2] | microsomal stability / metabolism (in words) [3] | ATX-inhibitory activity (comparison in words) (ATX) | CC50 at 72 h [4]
CCc1nc2c(C)cc(N3CCN(CC(=O)N4CC(O)C4)CC3)cn2c1N(C)c1nc(-c2ccc(F)cc2)c(C#N)s1 [GLPG1690, reference compound] | 119 µg·h/mL | 35200 ng/mL | 1 h | – | – | – | – | –
O=C(CCN1CCN(C(=O)OCc2cc(Cl)cc(Cl)c2)CC1)c1ccc2[nH]c(=O)oc2c1 [PF-8380] | – | – | – | – | significantly reduced | – | – | –

Second part, led by results:

AUC [1] | Cmax [1] | Tmax [1] | IC50 (ATX) | Structure (SMILES) | infarct size and stroke-related motor deficits [2] | microsomal stability / metabolism (in words) [3] | ATX-inhibitory activity (comparison in words) (ATX) | CC50 at 72 h [4]
– | – | – | 2 nM | O=C(CS(=O)(=O)c1ccc2nn[nH]c2c1)N1CCN(C(=O)OCc2cc(C(F)(F)F)cc(C(F)(F)F)c2)CC1 [MJK2234002, 3,5-bis(trifluoromethyl)benzyl 4-(2-((1H-benzo[d][1,2,3]triazol-6-yl)sulfonyl)acetyl)piperazine-1-carboxylate] | – | almost equally metabolically stable and superior to all other compounds tested | almost equal ATX-inhibitory activity | 67800 nM
303 µg·h/mL | 56400 ng/mL | 2 h | 1.8 nM | O=C(OCc1cc(C(F)(F)F)cc(C(F)(F)F)c1)N1CCN(CCS(=O)(=O)c2ccc3nn[nH]c3c2)CC1 [MJK2134025, 3,5-bis(trifluoromethyl)benzyl 4-(2-((1H-benzo[d][1,2,3]triazol-6-yl)sulfonyl)ethyl)piperazine-1-carboxylate] | – | almost equally metabolically stable and superior to all other compounds tested; also recorded: favorable decay time course | almost equal ATX-inhibitory activity; also recorded: comparable ATX-inhibtion as PF8380 | 45100 nM
– | – | – | 4 nM | O=C(CSc1ccc2nn[nH]c2c1)N1CCN(C(=O)OCc2cc(C(F)(F)F)cc(C(F)(F)F)c2)CC1 [MJK2234001, 3,5-bis(trifluoromethyl)benzyl 4-(2-((1H-benzo[d][1,2,3]triazol-6-yl)thio)acetyl)piperazine-1-carboxylate] | – | metabolized at a comparable speed as the experimental drug GLPG 1690 | – | 6200 nM
